Consider 14 molecules from PMC6009948, “Design and synthesis of benzopyran-based inhibitors of the hypoxia-inducible factor-1 pathway with improved water solubility” (Journal of Enzyme Inhibition and Medicinal Chemistry, 2017).

In brackets after ≈: the same amount, converted by molar mass. Where two headings read alike, the source gives them in different places.

Series [1] has as its system hypoxia-induced HIF transcriptional activity. In words: HRE-luciferase reporter assay in LN229-HRE-luciferase glioma cells. The series is classed as cell-based. The conditions noted are these: read-out: IC50, HRE-luciferase reporter inhibitory activity. The protocol:
These analogs were first evaluated for their ability to inhibit hypoxia-induced HIF transcriptional activity in LN229-HRE-luciferase glioma cells as described previously. Their inhibitory activities are presented as IC50 in Table 1.
All the analogs were assessed for their ability to inhibit the HIF-1 pathway using a luciferase reporter assay described previously. This assay reports the ability for a compound to inhibit HIF transcriptional activity. […] The same is true if the morpholino unit is directly attached to the sulfonyl group (6). In the two series of compounds (3, 4) with a substituted phenyl group replacing the benzopyran ring in 1, only introduction of the morpholino moiety at the para positions (3) allowed for the preservation of HIF inhibition activity.
On the technique in general: A reporter such as luciferase makes a cellular process visible.

The nature of series [2]: Solubility by dynamic light scattering (particle aggregation). The series is classed as physicochemical. To be noted: DLS; for Concentration of particle appearance in PBS: PBS with 1% DMSO, rested 1 h; for Concentration of particle appearance in water: de-ionised water with 1% DMSO, room temperature, rested 24 h. The protocol: To further investigate the true enhancement of solubility, particle aggregation was examined using dynamic light scattering (DLS). Selected compounds were treated according to the following procedure: • All centrifuge tubes and cuvettes were rinsed with either DCM or water and then vacuum dried before use to remove dust and any particulates. • Stock solutions (10 mM) of each compound of interest were prepared in filtered DMSO. • Six dilutions (0, 10, 20, 30, 50, and 100 µM) were prepared in filtered de-ionised water with 1% DMSO and allowed to rest at room temperature for 24 h after vortex. • DLS analysis was performed for each concentration on the Brookhaven Instrument Corporation, NanoBrook 90Plus Particle Size Analyzer, Version 5.20 (Holtsville, NY). • Additional experiments were performed at specific concentrations for each compound as follows: 0, 1, 3, 10, and 20 µM concentrations of 1; 0, 10, 12, and 20 µM of 2; 0, 5, 7, and 10 µM of 3a; and 0, 10, 20, 30, and 50 µM concentrations of 4a. • Additional experiments were repeated in filtered PBS* with 1% DMSO as follows: 0, 0.5, 1, 2, 3, and 5 µM concentrations of 1; 0, 5, 7, 10, 12, and 15 µM of 2; 0, 10, 12, 15, and 20 µM of 3a; and 0, 10, 20, 30, and 50 µM concentrations of 4a.
*Experiments in PBS were carried out the same way as the experiments in water except DMSO stock solutions were made at 5 mM and the PBS diluted samples rested for 1 h before particle analysis.
To investigate the true enhancement of aqueous solubility, particle aggregation was examined using DLS. DLS can detect particle sizes in solution by measuring changes in scattered light in relation to the Brownian motion of particles. It is commonly used to detect the particle sizes of various chemical and biological molecules, including small molecule inhibitors. Though there are several methods for detecting solubility, we chose the DLS method due to its ease, reproducibility, minimal sample requirement, and relative sensitivity to small particles.
The active compounds 3a and 4a were compared to their non-morpholine containing counterparts, 1 and 2, respectively (Figure 3). Solutions of varying concentrations of each compound were made in either water or PBS with 1% DMSO. […] DLS measurements, summarised in Table 2, reveal that 3a forms aggregates at approximately 10 µM, an order of magnitude higher than 1, which is insoluble at just 1 µM in water.

Series [3] has as its system hypoxia-induced HIF transcriptional activity. To be noted: cited from earlier work.
Details of series [4]: method as in earlier work. To be noted: cited from earlier work.
In series [5] the test system is brain, and pancreatic cancers. Also noted: method as in earlier work. To be noted: cited from earlier work.
Details of series [6]: method as in earlier work. The conditions noted are these: daily treatments with 60 mg/kg for up to 12 weeks; cited from earlier work.
On the set-up of series [7]: method as in earlier work. To be noted: cited from earlier work. This is another data set of the same source.

What is called IC50 is the concentration that gives 50% inhibition.

With `COc1ccc(S(=O)(=O)N(Cc2cccc(CN3CCOCC3)c2)c2ccccc2)cc1OC` [Compound 3b, 3,4-Dimethoxy-N-(3-(morpholinomethyl)benzyl)-N-phenylbenzenesulfonamide], the IC50 in series [1] (Glioma cell) is > 5 µM.
Still for that read-out and setting: under `CC1(C)C=Cc2cc(CN(C3CCC3)S(=O)(=O)N3CCOCC3)ccc2O1` [Compound 6b, N-Cyclobutyl-N-((2,2-dimethyl-2H-chromen-6-yl)methyl)morpholine-4-sulfonamide] stands > 5 µM.
On the same count and under the same terms, as for `COc1ccc(S(=O)(=O)N(Cc2ccc(N3CCOCC3)cc2)c2ccccc2)cc1OC` [Compound 3d, 3,4-Dimethoxy-N-(4-morpholinobenzyl)-N-phenylbenzenesulfonamide], the figure is 3.8 µM; as for `COc1ccc(S(=O)(=O)N(Cc2ccc(N3CCOCC3)cc2)C2CCC2)cc1OC` [Compound 4d, N-Cyclobutyl-3,4-dimethoxy-N-(4-morpholinobenzyl)benzenesulfonamide], ~2.6 µM.
“N-Cyclobutyl-3,4-dimethoxy-N-(2-(morpholinomethyl)benzyl)benzenesulfonamide [Compound 4c]”: the IC50 in series [1] is > 5 µM.
In the case of `COc1ccc(S(=O)(=O)N(Cc2cccc(CN3CCOCC3)c2)C2CCC2)cc1OC` [Compound 4b, N-Cyclobutyl-3,4-dimethoxy-N-(3-(morpholinomethyl)benzyl)benzenesulfonamide], in series [1] (Glioma cell), the IC50 is > 5 µM.
As to `COc1ccc(S(=O)(=O)N(Cc2ccc3c(c2)C=CC(C)(C)O3)c2ccccc2)cc1OC` [Compound 1, N-((2,2-dimethyl-2H-chromen-6-yl)methyl)-3,4-dimethoxy-N-phenylbenzenesulfonamide], in series [2], the “Concentration of particle appearance in PBS” value (“Concentration … in PBS” for short) was 1 µM and the “Concentration of particle appearance in water” value (“Concentration … in water” for short) was found to be 1 µM. For the same molecule, the IC50 in series [3] (lead compound 1 (KCN1), read-out: IC50, HIF-dependent bioassay (HRE-luciferase reporter)) is ~0.6 µM. Also, the solubility in water in series [4] is 9 ng/mL (≈ 0.0193 µM). In addition, the “in vivo inhibitory activity against brain, and pancreatic cancers” value in series [5] was “very pronounced inhibitory activity”. Also, the “tolerability / side effects in mice” value in series [6] is “minimal side effects”. Also, the cytotoxicity result in series [7] was “Neither did 1 nor its analogs demonstrate cytotoxicity”.
For the molecule `COc1ccc(S(=O)(=O)N(CCN2CCOCC2)Cc2ccc3c(c2)C=CC(C)(C)O3)cc1OC` [Compound 5a, N-((2,2-Dimethyl-2H-chromen-6-yl)methyl)-3,4-dimethoxy-N-(2-morpholinoethyl)benzenesulfonamide], the concentration for half-maximal inhibition (IC50) in series [1] (Glioma cell) is > 5 µM.
On to `COc1ccc(S(=O)(=O)N(Cc2ccc(CN3CCOCC3)cc2)C2CCC2)cc1OC` [Compound 4a, N-Cyclobutyl-3,4-dimethoxy-N-(4-(morpholinomethyl)benzyl)benzenesulfonamide], for which the IC50 in series [1] (Glioma cell) worked out at 1 µM. The “Concentration … in water” value in series [2] is >100 µM.
On to `COc1ccc(S(=O)(=O)N(Cc2ccc(CN3CCOCC3)cc2)c2ccccc2)cc1OC` [Compound 3a, 3,4-Dimethoxy-N-(4-(morpholinomethyl)benzyl)-N-phenylbenzenesulfonamide], for which, in series [1] (Glioma cell), the IC50 turned out to be 0.9 µM. In addition, the “Concentration … in PBS” value in series [2] was 15 µM.
In the case of `COc1ccc(S(=O)(=O)N(Cc2ccc3c(n2)C=CC(C)(C)O3)C2CCC2)cc1OC` [Compound 2, N-cyclobutyl-N-((2,2-dimethyl-2H-pyrano[3,2-b]pyridin-6-yl)methyl)-3,4-dimethoxybenzenesulfonamide], in series [2], the “Concentration … in PBS” value amounted to 10 µM and the “Concentration … in water” value worked out at 10 µM. In addition, the 50% inhibitory concentration (IC50) in series [3] (lead compound 2 (64b), read-out: IC50, HRE-luciferase reporter inhibitory activity) was ~0.3 µM.
Regarding “3,4-Dimethoxy-N-(2-(morpholinomethyl)benzyl)-N-phenylbenzenesulfonamide [Compound 3c]”, in series [1], the IC50 was > 5 µM.
Regarding `CC1(C)C=Cc2cc(CN(c3ccccc3)S(=O)(=O)N3CCOCC3)ccc2O1` [Compound 6a, N-((2,2-Dimethyl-2H-chromen-6-yl)methyl)-N-phenylmorpholine-4-sulfonamide], the half-inhibitory concentration (IC50) in series [1] (Glioma cell) was > 5 µM.
On the same count and under the same terms, under `COc1ccc(S(=O)(=O)N(CCCN2CCOCC2)Cc2ccc3c(c2)C=CC(C)(C)O3)cc1OC` [Compound 5b, N-((2,2-Dimethyl-2H-chromen-6-yl)methyl)-3,4-dimethoxy-N-(3-morpholinopropyl)benzenesulfonamide] stands > 5 µM.
